ChEMBL document CHEMBL5038618, “Discovery of PT-65 as a highly potent and selective Proteolysis-targeting chimera degrader of GSK3 for treating Alzheimer's disease” (Eur J Med Chem, 2021)
The source made the active and inactive calls. The calls are words filed in the database; no cut-off is given here.

Tests used:
SH-SY5Y [1] = test: Downregulation of GSK3alpha expression in human SH-SY5Y cells at 62.5 to 500 nM pretreated for 2 hrs followed by Abeta42 coincubation for 72 hrs by Westernblot analysis; type: functional, cell-based; conditions: dose 62.5-500 nM, time 74.0 hrs
SH-SY5Y [2] = test: Downregulation of GSK3beta expression in human SH-SY5Y cells at 62.5 to 500 nM pretreated for 2 hrs followed by Abeta42 coincubation for 72 hrs by Westernblot analysis; type: functional, cell-based; conditions: dose 62.5-500 nM, time 74.0 hrs
SH-SY5Y [3] = test: Cytotoxicity against human SH-SY5Y cells assessed as increase in cell viability at 62.5 to 250 nM pretreated for 2 hrs followed by Abeta42 addition and measured after 72 hrs by CCK8 assay; type: functional, cell-based; conditions: dose 62.5-250 nM, time 74.0 hrs
[4] = molecular target: T1, Protein cereblon/Glycogen synthase kinase-3 beta (Homo sapiens, UniProt P49841+Q96SW2); test: Protac activity at CRBN/GSK3beta in human SH-SY5Y cells assessed as induction of GSK3beta degradation measured after 24 hrs; type: cell-based
Target sequence in this assay (P49841 whole entry): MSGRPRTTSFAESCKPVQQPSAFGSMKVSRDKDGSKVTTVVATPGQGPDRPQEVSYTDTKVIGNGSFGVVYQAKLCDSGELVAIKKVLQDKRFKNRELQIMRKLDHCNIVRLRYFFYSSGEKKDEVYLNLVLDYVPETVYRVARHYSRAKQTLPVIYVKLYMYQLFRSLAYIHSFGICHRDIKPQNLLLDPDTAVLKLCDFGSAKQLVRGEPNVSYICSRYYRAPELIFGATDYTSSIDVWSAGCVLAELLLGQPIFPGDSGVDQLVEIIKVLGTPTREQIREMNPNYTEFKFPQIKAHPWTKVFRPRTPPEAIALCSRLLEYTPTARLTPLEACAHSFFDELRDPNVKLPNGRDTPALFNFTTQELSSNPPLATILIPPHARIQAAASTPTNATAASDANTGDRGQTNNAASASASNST
Target sequence in this assay (Q96SW2 whole entry): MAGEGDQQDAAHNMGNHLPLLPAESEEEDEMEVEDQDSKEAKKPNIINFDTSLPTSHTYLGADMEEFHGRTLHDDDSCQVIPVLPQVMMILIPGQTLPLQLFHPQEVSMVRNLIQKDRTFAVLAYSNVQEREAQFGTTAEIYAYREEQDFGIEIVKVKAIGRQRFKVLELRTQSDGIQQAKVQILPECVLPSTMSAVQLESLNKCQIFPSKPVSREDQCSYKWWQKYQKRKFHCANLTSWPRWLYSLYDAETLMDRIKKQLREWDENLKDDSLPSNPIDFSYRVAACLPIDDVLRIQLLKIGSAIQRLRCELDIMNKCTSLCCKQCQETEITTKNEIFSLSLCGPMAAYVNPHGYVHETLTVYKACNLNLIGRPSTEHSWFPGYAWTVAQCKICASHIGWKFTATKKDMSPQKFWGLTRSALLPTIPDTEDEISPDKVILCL

SH-SY5Y [5] = test: Induction of GSK3beta degradation in human SH-SY5Y cells assessed as maximum degradation at 1 uM measured after 9 hrs by western blot assay; type: cell-based
SH-SY5Y [6] = test: Induction of apoptosis in human SH-SY5Y cells assessed as necrotic cells at 125 nM preincubated for 2 hrs followed by coincubation with Abeta42 and measured after 72 hrs by Annexin V-FITC/propidium iodide staining based flow cytometry (Rvb=0.7%); type: functional; conditions: time 74 hrs
SH-SY5Y [7] = test: Induction of apoptosis in human SH-SY5Y cells assessed as live cells at 125 nM preincubated for 2 hrs followed by coincubation with Abeta42 and measured after 72 hrs by Annexin V-FITC/propidium iodide staining based flow cytometry (Rvb=94.8%); type: functional; conditions: time 74 hrs
SH-SY5Y [8] = test: Induction of apoptosis in human SH-SY5Y cells assessed as necrotic cells at 250 nM preincubated for 2 hrs followed by coincubation with Abeta42 and measured after 72 hrs by Annexin V-FITC/propidium iodide staining based flow cytometry (Rvb=0.7%); type: functional; conditions: time 74 hrs
SH-SY5Y [9] = test: Induction of apoptosis in human SH-SY5Y cells assessed as live cells at 250 nM preincubated for 2 hrs followed by coincubation with Abeta42 and measured after 72 hrs by Annexin V-FITC/propidium iodide staining based flow cytometry (Rvb=94.8%); type: functional; conditions: time 74 hrs
SH-SY5Y [10] = test: Induction of apoptosis in human SH-SY5Y cells assessed as early apoptotic cells at 250 nM preincubated for 2 hrs followed by coincubation with Abeta42 and measured after 72 hrs by Annexin V-FITC/propidium iodide staining based flow cytometry (Rvb=1%); type: functional; conditions: time 74 hrs
[11] = molecular target: T1, Protein cereblon/Glycogen synthase kinase-3 beta; test: Protac activity at CRBN/GSK3beta in human SH-SY5Y cells assessed as induction of GSK3beta degradation at 0.1 uM measured after 24 hrs; type: cell-based
Target sequence in this assay (P49841 whole entry, looked up): as the sequence (P49841 whole entry) above
Target sequence in this assay (Q96SW2 whole entry, looked up): as the sequence (Q96SW2 whole entry) above

Rattus norvegicus [12] = test: Antialzheimer activity against hippocampal tissue of okadaic acid induced Sprague-Dawley rat assessed as reduction on tau protein level at 200 to 600 uM, iv by western blot assay; type: functional, organism-based; conditions: Hippocampus, dose 200-600 µM
Rattus norvegicus [13] = test: Antialzheimer activity against hippocampal tissue of okadaic acid induced Sprague-Dawley rat assessed as reduction on GSK3alpha protein level at 200 to 600 uM, iv by immunohistochemical staining based analysis; type: functional, organism-based; conditions: Hippocampus, dose 200-600 µM
Rattus norvegicus [14] = test: Antialzheimer activity against hippocampal tissue of okadaic acid induced Sprague-Dawley rat assessed as reduction on GSK3beta protein level at 200 to 600 uM, iv by immunohistochemical staining based analysis; type: functional, organism-based; conditions: Hippocampus, dose 200-600 µM
[15] = molecular target: Glycogen synthase kinase-3 beta (Homo sapiens, UniProt P49841); conditions: dose microM <=0.00975
Glycogen synthase kinase-3 beta, sequence (P49841 whole entry, looked up): as the sequence (P49841 whole entry) above
Description: Binding affinity to recombinant GSK3beta (unknown origin) assessed as association rate constant upto 0.00975 uM by SPR analysis

- DC50 [4]: 34.2 nM
- Activity [11]: 67.1%
- Ka [15]: 2.04 10^6/Ms
SMILES: Nc1ncc(-c2ccc(S(=O)(=O)N3CCN(CCCCc4cn(CCOCCOCCOCCOCCOCCNc5cccc6c5C(=O)N(C5CCC(=O)NC5=O)C6=O)nn4)CC3)cc2)nc1C(=O)Nc1cccnc1 (stereo not given)
- Activity (SH-SY5Y [1]): Dose-Dependent Effect
- Activity (SH-SY5Y [2]): Dose-Dependent Effect
- Activity (SH-SY5Y [3]): inactive
- Activity (SH-SY5Y [5]): Active
- Activity (SH-SY5Y [6]): 3.3%
- Activity (SH-SY5Y [7]): 83%
- Activity (SH-SY5Y [8]): 2.8%
- Activity (SH-SY5Y [9]): 89.5%
- Activity (SH-SY5Y [10]): 1.2%
- Activity (Rattus norvegicus [12]): Active
- Activity (Rattus norvegicus [13]): Active
- Activity (Rattus norvegicus [14]): Active
